Data reported in US20110046107A1, “SULFONYL-SUBSTITUTED CARBAPENEM COMPOUNDS” (priority 2007, published 2011).
In brackets after ≈: the same amount, converted by molar mass. Read-outs that look alike come from different tables or passages of the source.

Tests used:
[1] = Pharmacokinetic study of the compounds in SD rat (intravenous injection); format: in vivo, SD male rats
Protocol: Test drugs: the compound 1, 6, 8 and 9 prepared in the examples
Control drugs: Meropenem (Meropenem for injection), commercially available; Doripenem (Doripenem for Injection).
Internal standard substance: Warfarin, a white powder, purity 99%, batch number: 0072-8501, provided by Shanghai Institute for Drug Control.
Drug formulation: the test drugs were formulated before use by being dissolved in physiological saline to make a final concentration of 5 mg/mL for intravenous injection.
Test animal: SD male rats, weight: 200˜250 g, purchased from SHANGHAI SLAC LABORATORY ANIMAL CO. LTD.
Drug administration: The SD male rats were randomly divided into five groups with 3 in each group, and given the drugs by intravenous injection at a dose of 10 mg/kg. The animals were weighed before administration.
Collection of Samples: Zero time was marked before administration; 0.5 mL of blood was respectively sampled from orbit venous plexus at 5 min, 15 min, 30 min, 45 min, 1 h, 2 h, 4 h, 6 h, 8 h, 24 h after administration into heparinized centrifuge tubes. The samples were centrifuged for 6 minutes at 8000 rpm and the supernatant plasma was separated. The plasma was frozen at −20° C. for LC-MS/MS analysis.
Chromatographic conditions: column: Gemini C6-Phenyl (50 mm×4.6 mm, 5 μm); mobile phase: 0.1% of formic acid-water-acetonitrile (5:35:60, v/v/v); flow rate: 1 mL/min; column temperature: 35-40° C.; injection volume: 5 μL; split ratio: 1/5.
Mass spectrometer conditions: scanning mode: cation multiple reactions monitoring (MRM); ion source: electrospray ionization (ESI); Nebulize gas: 8 L/min; Curtain gas: 8 L/min; Collision gas: 4 L/min; Ionspray voltage: 4500 v; Temperature: 400° C./500° C.
Preparation of the Standard Curve and Quality-Control Sample: a Suitable Amount of the test drug was weighed precisely and then formulated into a stock solution (2.6 mg/mL) with ultrapure water. The stock solution was diluted with methanol to obtain a series of working solutions in a concentration of 25000, 5000, 2500, 500, 250 and 50 ng/mL, respectively. 100 μL of plasma samples were separately added into 20 μL of said working solutions to obtain the calibration solutions in a concentration of 5000, 1000, 500, 100, 50 and 10 ng/mL. By the same method, the quality-controlled sample solutions in a concentration of 4000, 800 and 20 ng/mL can be prepared. A standard curve was obtained by chromatographic analysis of the samples.
Sample preparation: 20 μL of acetonitrile and 200 μL (200 ng/mL) of Warfarin in acetonitrile were added into 100 μL of plasma sample, then spun for 1 minute and centrifuged for 5 minutes at 15000 rpm. 100 μL of the supernatant was taken, where 3 μL aliquot of the supernatant was used for the LC/MS/MS analysis.
Dosing concentration: The accuracy of the drug concentration in dosing solution for intravenous injection was 103.2%, determined by analysis of the formulated drugs using HPLC and comparison with the standards.
Data analysis: The drug concentration in plasma would be considered as zero if under the detection limit (10 ng/mL). The pharmacokinetics parameters were calculated by the non-compartment model using Winnonlin Professional 5.2 pharmacokinetics software.
Pharmacokinetics: The pharmacokinetics parameters and drug concentration-time curve were obtained by measuring the plasma drug concentration at different time points.

[2] = cited from earlier work
[3] = tested on: Klebsiella pneumonia (producing ESBL); experiment: In vitro antibacterial activity, agar dilution method (clinical isolates); format: cell-based; details: Klebsiella pneumoniae; clinically isolated strains (producing ESBL), Gram-negative, agar dilution; read-out: MIC90 Klebsiella pneumonia
From the text: (§1) Bacterial strains for test: All the bacterial strains are clinical isolates and purchased from public organizations. methicillin-sensitive staphylococcus aureus (MS SA), methicillin-resistant staphylococcus aureus (MRSA), methicillin-sensitive staphylococcus epidermidis (MSSE), methicillin-resistant staphylococcus epidermidis (MRSE), streptococcus pyogenes, penicillin-sensitive streptococcus pneumoniae (PSSP), penicillin-resistant streptococcus pneumoniae (PRSP), Escherichia coli, Citrobacter freundii, Enterobacter cloacae, Hemophilus influenza, Klebsiella pneumonia (producing ESBL), Morganella morganii, Proteus mirabilis, Serratia marcescens, and Pseudomonas aeruginosa.
(§2) Drugs to be tested: compounds of the invention prepared in the examples; the chemical names, structural formulae, preparation materials, and preparation methods are provided in the preparation examples of the compounds;
(§3) Meropenem (Meropenem for injection), Ertapenem (Ertapenem for injection), and Doripenem (Doripenem for injection) commercially available
(§4) Experimental method: the agar dilution method, by reference to Methodology of Pharmacological Experiment (XU Shuyun et al, published by the Peoples Medical Publishing House, 1st Edition, August, 1982; 3rd Edition, 5th printing, January 2002, p 1659-1660).

[4] = tested on: methicillin-sensitive staphylococcus aureus (MSSA); experiment: as above; format: cell-based; details: clinically isolated strains, Gram-positive, agar dilution, read-out: MIC90 S. aureus MSSA
From the text: as §1, §2, §3, §4

Enterobacter cloacae = experiment: as above; format: cell-based; details: clinically isolated strains, Gram-negative, agar dilution, read-out: MIC90 Enterobacter cloacae
From the text: as §1, §2, §3, §4

Proteus mirabilis = experiment: as above; format: cell-based; details: clinically isolated strains, Gram-negative, agar dilution, read-out: MIC90 Proteus mirabilis
From the text: as §1, §2, §3, §4

[5] = tested on: methicillin-resistant staphylococcus aureus (MRSA); experiment: as above; format: cell-based; details: clinically isolated strains, Gram-positive, read-out: MIC90 S. aureus MRSA
From the text: as §1, §2, §3, §4

[6] = tested on: methicillin-resistant staphylococcus epidermidis (MRSE); experiment: as above; format: cell-based; details: clinically isolated strains, Gram-positive, read-out: MIC90 S. epidermidis MRSE
From the text: as §1, §2, §3, §4

Morganella morganii = experiment: as above; format: cell-based; details: clinically isolated strains, Gram-negative
From the text: as §1, §2, §3, §4

Escherichia coli = experiment: as above; format: cell-based; details: clinically isolated strains, Gram-negative, read-out: MIC90 E. coli
From the text: as §1, §2, §3, §4

Hemophilus influenza = experiment: as above; format: cell-based; details: read-out: MIC90 Hemophilus influenza
From the text: as §1, §2, §3, §4

Pseudomonas aeruginosa = experiment: as above; format: cell-based; details: clinically isolated strains, Gram-negative
From the text: as §1, §2, §3, §4

streptococcus pyogenes = experiment: as above; format: cell-based; details: clinically isolated strains, Gram-positive, read-out: MIC90 S. pyogenes
From the text: as §1, §2, §3, §4

[7] = tested on: methicillin-sensitive staphylococcus epidermidis (MSSE); experiment: as above; format: cell-based; details: clinically isolated strains, Gram-positive, agar dilution, read-out: MIC90 S. epidermidis MSSE
From the text: as §1, §2, §3, §4

[8] = tested on: penicillin-resistant streptococcus pneumoniae (PRSP); experiment: as above; format: cell-based; details: clinically isolated strains, Gram-positive, read-out: MIC90 S. pneumoniae PRSP
From the text: as §1, §2, §3, §4

[9] = tested on: penicillin-sensitive streptococcus pneumoniae (PSSP); experiment: as above; format: cell-based; details: clinically isolated strains, Gram-positive, read-out: MIC90 S. pneumoniae PSSP
From the text: as §1, §2, §3, §4

Citrobacter freundii = experiment: as above; format: cell-based; details: clinically isolated strains, Gram-negative
From the text: as §1, §2, §3, §4

Serratia marcescens = experiment: as above; format: cell-based; details: clinically isolated strains, Gram-negative, agar dilution, read-out: MIC90 Serratia marcescens
From the text: as §1, §2, §3, §4

With `C[C@@H](O)[C@H]1C(=O)N2C(C(=O)O)=C(SC3CN(S(=O)(=O)NCC(O)CN)C3)[C@H](C)[C@H]12` (stereo partly drawn) [Compound 9, (4R,5S,6S)-3-[1-(2-hydroxy-3-aminopropylaminosulfonyl)-azetidin-3-yl]thio-6-[(1R)-1-hydroxyethyl]-4-methyl-7-oxo-1-aza-bicyclo-[3.2.0]-hept-2-ene-2-carboxylic acid] the half-life ([1]; in vivo, SD male rats, intravenous injection 10 mg/kg, plasma, X ± SD, n = 3, read-out: t1/2 (half lives) (converted)) was 19.2 ± 3.6 min.
In the case of `C[C@@H](O)[C@H]1C(=O)N2C(C(=O)O)=C(S[C@@H]3CN[C@H](CNS(N)(=O)=O)C3)[C@H](C)[C@H]12` [doripenem, Doripenem, reference compound], the “half-lives in human body” value [2] is given as “about 1 h”, the MIC90 [3] is given as 0.125 µg/mL (≈ 0.297 µM) and the MIC90 [4] is given as 0.125 µg/mL (≈ 0.297 µM). The MIC90 (Enterobacter cloacae) was 0.025 µg/mL (≈ 0.0595 µM), the MIC90 (Proteus mirabilis) was 0.5 µg/mL (≈ 1.19 µM) and the MIC90 [5] was 16 µg/mL (≈ 38 µM). It also gave an MIC90 [6] of 16 µg/mL (≈ 38 µM), an MIC90 (Morganella morganii) of 0.063 µg/mL (≈ 0.15 µM) and an MIC90 (Escherichia coli) of 0.063 µg/mL (≈ 0.15 µM). For the same molecule, the MIC90 (Hemophilus influenza) was 0.5 µg/mL (≈ 1.19 µM), the MIC90 (Pseudomonas aeruginosa) was 8 µg/mL (≈ 19 µM) and the MIC90 (streptococcus pyogenes) was 0.008 µg/mL (≈ 0.019 µM). For the same molecule, the MIC90 [7] was 0.125 µg/mL (≈ 0.297 µM), the MIC90 [8] was 1 µg/mL (≈ 2.38 µM) and the MIC90 [9] was 0.016 µg/mL (≈ 0.038 µM). It also gave an MIC90 (Citrobacter freundii) of 0.063 µg/mL (≈ 0.15 µM), an MIC90 (Serratia marcescens) of 0.25 µg/mL (≈ 0.595 µM) and a half-life ([1]; male, SD, in vivo, iv, 10 mg/kg) of 6.6 ± 0.6 min.
In the case of `C[C@@H](O)[C@H]1C(=O)N2C(C(=O)O)=C(S[C@@H]3CN[C@H](C(=O)N(C)C)C3)[C@H](C)[C@H]12` [meropenem, Meropenem, reference compound], the “half-lives in human body” value [2] is given as “about 1 h”, the MIC90 [3] is given as 0.5 µg/mL (≈ 1.3 µM) and the MIC90 [4] is given as 0.25 µg/mL (≈ 0.652 µM). For the same molecule, the MIC90 (Enterobacter cloacae) was 1 µg/mL (≈ 2.61 µM), the MIC90 (Proteus mirabilis) was 0.125 µg/mL (≈ 0.326 µM) and the MIC90 [5] was 64 µg/mL (≈ 167 µM). It also gave an MIC90 [6] of 32 µg/mL (≈ 83.4 µM), an MIC90 (Morganella morganii) of 0.063 µg/mL (≈ 0.164 µM) and an MIC90 (Escherichia coli) of 0.032 µg/mL (≈ 0.0834 µM). It also gave an MIC90 (Hemophilus influenza; clinically isolated strains, Gram-negative, agar dilution) of 0.25 µg/mL (≈ 0.652 µM), an MIC90 (Pseudomonas aeruginosa) of 16 µg/mL (≈ 41.7 µM) and an MIC90 (streptococcus pyogenes) of 0.008 µg/mL (≈ 0.0209 µM). It also gave an MIC90 [7] of 0.25 µg/mL (≈ 0.652 µM), an MIC90 [8] of 1 µg/mL (≈ 2.61 µM) and an MIC90 [9] of 0.016 µg/mL (≈ 0.0417 µM). It also gave an MIC90 (Citrobacter freundii) of 0.063 µg/mL (≈ 0.164 µM), an MIC90 (Serratia marcescens) of 0.125 µg/mL (≈ 0.326 µM) and a half-life ([1]; SD male rats, intravenous injection 10 mg/kg, plasma, X ± SD, n = 3, read-out: t1/2 (half lives) (converted)) of 7.2 ± 0.6 min.
